From publication PMC7383964 (Chemmedchem, 2020) come the findings set out here.

Series [1] in a line: in vitro. To be noted: male, Sprague-Dawley, rat, microsomes, pH 7.4.
The conditions of series [2]: rat, microsomes.
Series [3] has as its system HEK293T cells. To be noted: human.

The term half-life denotes how long it takes for the measured level to halve. In turn, `O=C(/N=N/c1ccc(F)cc1)N1CCCCC1` [Compound 18, (E)‐((4‐Fluorophenyl)diazenyl)(piperidin‐1‐yl)methanone] showed a half-life in series [1] of 1.22 ± 0.2 h. The compound also registered an Intrinsic clearance in series [2] of 97 ± 15 µL/min/mg.

Turning to `O=C(/C=C/c1ccc(F)cc1)N1CCCCC1` [Compound 19, (E)‐3‐(4‐Fluorophenyl)‐1‐(piperidin‐1‐yl)prop‐2‐en‐1‐one], in series [1], the half-life worked out at 1.42 ± 0.3 h. Also, in series [2], the Intrinsic clearance was found to be 85 ± 20 µL/min/mg.

Regarding `C=CCN1CC[C@]23c4c5ccc(O)c4O[C@H]2C(=O)CC[C@@]3(O)[C@H]1C5` [naloxone], the “Cell density relative to the effect of vehicle (DMSO)” value in series [3] is listed as 84±5%.
